This is an account of results in ChEMBL document CHEMBL5579807, “Development of STING degrader with double covalent ligands” (Bioorg Med Chem Lett, 2024).

Active and inactive are the calls of the source. The rule behind the calls is not given here.

Assay type in all cases: cell-based
In assay [1] the target is T1, Protein cereblon/Stimulator of interferon genes protein (Homo sapiens) (UniProt Q96SW2+Q86WV6). The assay can be described thus: PROTAC activity at CRBN/STING in human THP-1 cells assessed as induction of STING degradation incubated for 24 to 48 hrs by Western blot analysis. As to conditions: dose 3-30 µM, time 24-48 hrs.
The target in assay [2] is T1, Protein cereblon/Stimulator of interferon genes protein (Homo sapiens). Description: PROTAC activity at CRBN/STING in human THP-1 cells assessed as induction of STING degradation at 3 to 30 uM incubated for 6 hrs by Western blot analysis. As to conditions: dose 3-30 µM. (A western blot detects proteins with antibodies after separation by electrophoresis.)
The target in assay [3] is T2, E3 ubiquitin-protein ligase RNF126/Stimulator of interferon genes protein (Homo sapiens) (UniProt Q86WV6+Q9BV68). The assay can be described thus: PROTAC activity at RNF126/STING in human THP-1 cells assessed as induction of STING degradation at 3 to 30 uM incubated for 6 to 48 hrs by Western blot analysis. As to conditions: dose 3-30 µM, time 6-48 hrs.
In assay [4] the target is T2, E3 ubiquitin-protein ligase RNF126/Stimulator of interferon genes protein (Homo sapiens). The assay can be described thus: PROTAC activity at RNF126/STING in human THP-1 cells assessed as induction of STING degradation at 10 uM incubated for 24 hrs by Western blot analysis.
Assay [5] addresses Stimulator of interferon genes protein (Homo sapiens) (UniProt Q86WV6). The assay can be described thus: Inhibtion of STING in 293-Dual hSTING-R232 cells co-expressing interferon beta luciferase reporter assessed as inhibition of interferon response incubated for 16 hrs in presence of cGAMP by luminescence based luciferase gene reporter assay. As to conditions: dose 1-30 µM. (In general: A reporter such as luciferase makes a cellular process visible.)

In assay [6] the target is T2, E3 ubiquitin-protein ligase RNF126/Stimulator of interferon genes protein (Homo sapiens). The assay can be described thus: PROTAC activity at RNF126/STING in human THP-1 cells assessed as induction of STING degradation at 3 uM incubated for 18 hrs in the presence of MG132 by Western blot analysis.
Assay [7] has the same target. Description: PROTAC activity at RNF126/STING in human THP-1 cells assessed as induction of STING degradation at 3 uM incubated for 18 hrs in the presence of MLN7243 by Western blot analysis.
Assay [8] shares this target. The assay can be described thus: PROTAC activity at RNF126/STING in human THP-1 cells assessed as induction of STING degradation upto 30 uM incubated for 24 hrs by Western blot analysis.

T2 sequence (Q86WV6 whole entry, looked up): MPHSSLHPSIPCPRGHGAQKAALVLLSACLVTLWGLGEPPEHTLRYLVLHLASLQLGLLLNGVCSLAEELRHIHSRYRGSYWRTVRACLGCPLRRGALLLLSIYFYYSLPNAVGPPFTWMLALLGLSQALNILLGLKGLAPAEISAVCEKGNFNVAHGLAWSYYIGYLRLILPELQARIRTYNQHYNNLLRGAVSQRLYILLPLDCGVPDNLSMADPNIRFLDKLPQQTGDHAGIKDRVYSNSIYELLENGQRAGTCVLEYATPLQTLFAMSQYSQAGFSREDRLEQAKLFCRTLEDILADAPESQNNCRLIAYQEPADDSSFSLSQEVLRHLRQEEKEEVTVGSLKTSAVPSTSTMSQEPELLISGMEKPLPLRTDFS
T2 sequence (Q9BV68 whole entry, looked up): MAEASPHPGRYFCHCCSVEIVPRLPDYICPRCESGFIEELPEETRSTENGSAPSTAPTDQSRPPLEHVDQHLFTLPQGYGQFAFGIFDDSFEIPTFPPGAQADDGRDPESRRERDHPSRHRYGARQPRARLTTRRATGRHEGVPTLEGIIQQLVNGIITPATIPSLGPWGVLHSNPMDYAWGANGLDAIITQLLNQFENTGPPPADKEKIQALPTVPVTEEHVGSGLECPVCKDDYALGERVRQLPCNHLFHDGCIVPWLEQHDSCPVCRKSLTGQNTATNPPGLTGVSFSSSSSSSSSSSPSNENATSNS
T1 sequence (Q86WV6 whole entry, looked up): as the sequence (Q86WV6 whole entry, looked up) above
T1 sequence (Q96SW2 whole entry, looked up): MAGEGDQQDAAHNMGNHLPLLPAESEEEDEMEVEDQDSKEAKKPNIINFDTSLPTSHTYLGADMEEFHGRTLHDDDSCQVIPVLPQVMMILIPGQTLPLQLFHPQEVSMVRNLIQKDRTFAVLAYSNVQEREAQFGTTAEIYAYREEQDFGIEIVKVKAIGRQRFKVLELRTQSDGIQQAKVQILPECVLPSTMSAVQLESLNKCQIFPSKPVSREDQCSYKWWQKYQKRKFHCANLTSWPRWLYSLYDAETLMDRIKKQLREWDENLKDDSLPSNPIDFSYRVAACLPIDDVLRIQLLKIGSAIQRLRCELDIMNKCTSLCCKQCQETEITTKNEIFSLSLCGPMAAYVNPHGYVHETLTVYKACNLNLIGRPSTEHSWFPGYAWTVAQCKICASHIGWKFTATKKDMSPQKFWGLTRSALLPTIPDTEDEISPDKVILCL
Chain of Stimulator of interferon genes protein (Homo sapiens) (Q86WV6 whole entry): as the sequence (Q86WV6 whole entry, looked up) above

Regarding `O=C(/C=C/C(=O)Nc1ccc(NC(=O)c2ccc([N+](=O)[O-])o2)cc1)NCCCCCCNc1cccc2c1C(=O)N(C1CCC(=O)NC1=O)C2=O` (stereo not drawn), in assay [1], the Activity entry was “Dose-Dependent Effect”. Besides, in assay [2], the outcome was inactive.
Take `COc1ccc(C(=O)/C=C/C(=O)N2CCN(c3ccc(NC(=O)c4ccc([N+](=O)[O-])o4)cc3)CC2)cc1`: the outcome in assay [3] and in assay [4] was Active. Besides, the inhibition entry in assay [5] is “Dose-Dependent Effect”. In addition, the outcome in assay [6] and in assay [7] was inactive.
`COc1ccc(C(=O)/C=C/C(=O)Nc2ccc(NC(=O)c3ccc([N+](=O)[O-])o3)cc2)cc1`: the result in assay [8] was Active.
